{"source": "patent US7659400B2", "about": "“Radiolabelled benzamide analogues, their synthesis and use in diagnostic imaging” (Washington University, priority 2003, dated 2010)", "test_system": "EMT-6 tumors", "test": "Biodistribution of 18F-labeled ligands in mice bearing EMT-6 tumors", "format": "in vivo, female Balb/c mice", "details": "for clearance from the blood (in words): mouse, in vivo", "protocol": "This example illustrates in vivo evaluation of compounds of the present teachings. All animal experiments were conducted in compliance with the Guidelines for the Care and Use of Research Animals established by Washington University's Animal Studies Committee. EMT-6 mouse mammary adenocarcinoma cells (5×10^5 cells in 100 uL of phosphate-buffered saline) were implanted subcutaneously in the scapular region of female Balb/c mice (˜2-month old and 17-22 g; Charles River Laboratories). […] Groups of at least 4 mice were used for each time point. […] After counting, the percentage of the injected dose per gram of tissue (%ID/g) was calculated. The tumor/organ ratios were calculated by dividing the %ID/g of the tumor by the %ID/g of each organ.", "key": {"[1]": {"details": "60 min (1 h) after i.v. injection"}, "[2]": {"details": "120 min (2 h) after i.v. injection"}}, "note": "Where “and” joins values, the source holds several entries; their conditions need not be identical. Equal entries are not always repeated."}
{"smiles": "COc1cc2c(cc1OC)CN(CCCCNC(=O)c1cc(Br)ccc1OCC[18F])CC2", "note": "[[^18F]3d]", "values": [{"measurement": "Biodistribution: blood", "setting": "5 min after i.v. injection", "result": "3.57 ± 0.43", "unit": "%ID/g"}, {"measurement": "Biodistribution: bone", "setting": "5 min after i.v. injection", "result": "2.90 ± 0.39", "unit": "%ID/g"}, {"measurement": "Biodistribution: brain", "setting": "5 min after i.v. injection", "result": "1.09 ± 0.11", "unit": "%ID/g"}, {"measurement": "Biodistribution: fat", "setting": "5 min after i.v. injection", "result": "2.85 ± 0.47", "unit": "%ID/g"}, {"measurement": "Biodistribution: heart", "setting": "5 min after i.v. injection", "result": "3.74 ± 0.37", "unit": "%ID/g"}, {"measurement": "Biodistribution: kidney", "setting": "5 min after i.v. injection", "result": "42.94 ± 3.34", "unit": "%ID/g"}, {"measurement": "Biodistribution: liver", "setting": "5 min after i.v. injection", "result": "32.60 ± 3.96", "unit": "%ID/g"}, {"measurement": "Biodistribution: lung", "setting": "5 min after i.v. injection", "result": "12.08 ± 1.98", "unit": "%ID/g"}, {"measurement": "Biodistribution: muscle", "setting": "5 min after i.v. injection", "result": "1.95 ± 0.19", "unit": "%ID/g"}, {"measurement": "Biodistribution: tumor (tumor uptake)", "setting": "5 min after i.v. injection", "result": "3.28 ± 0.41", "unit": "%ID/g"}, {"measurement": "Biodistribution: blood", "setting": "30 min after i.v. injection", "result": "2.81 ± 0.32", "unit": "%ID/g"}, {"measurement": "Biodistribution: bone", "setting": "30 min after i.v. injection", "result": "1.17 ± 0.06", "unit": "%ID/g"}, {"measurement": "Biodistribution: brain", "setting": "30 min after i.v. injection", "result": "0.40 ± 0.03", "unit": "%ID/g"}, {"measurement": "Biodistribution: fat", "setting": "30 min after i.v. injection", "result": "0.96 ± 0.13", "unit": "%ID/g"}, {"measurement": "Biodistribution: heart", "setting": "30 min after i.v. injection", "result": "1.55 ± 0.11", "unit": "%ID/g"}, {"measurement": "Biodistribution: kidney", "setting": "30 min after i.v. injection", "result": "17.55 ± 2.75", "unit": "%ID/g"}, {"measurement": "Biodistribution: liver", "setting": "30 min after i.v. injection", "result": "13.12 ± 1.39", "unit": "%ID/g"}, {"measurement": "Biodistribution: lung", "setting": "30 min after i.v. injection", "result": "3.08 ± 0.23", "unit": "%ID/g"}, {"measurement": "Biodistribution: muscle", "setting": "30 min after i.v. injection", "result": "0.98 ± 0.18", "unit": "%ID/g"}, {"measurement": "Biodistribution: tumor (tumor uptake)", "setting": "30 min after i.v. injection", "result": "2.59 ± 0.19", "unit": "%ID/g"}, {"measurement": "Biodistribution: tumor (tumor uptake)", "setting": "[1]", "result": "2.09 ± 0.28", "unit": "%ID/g"}, {"measurement": "Biodistribution: blood", "setting": "60 min after i.v. injection", "result": "1.69 ± 0.63", "unit": "%ID/g"}, {"measurement": "Biodistribution: bone", "setting": "60 min after i.v. injection", "result": "1.12 ± 0.16", "unit": "%ID/g"}, {"measurement": "Biodistribution: brain", "setting": "60 min after i.v. injection", "result": "0.32 ± 0.05", "unit": "%ID/g"}, {"measurement": "Biodistribution: fat", "setting": "60 min after i.v. injection", "result": "0.38 ± 0.05", "unit": "%ID/g"}, {"measurement": "Biodistribution: heart", "setting": "60 min after i.v. injection", "result": "1.04 ± 0.21", "unit": "%ID/g"}, {"measurement": "Biodistribution: kidney", "setting": "60 min after i.v. injection", "result": "6.92 ± 1.61", "unit": "%ID/g"}, {"measurement": "Biodistribution: liver", "setting": "60 min after i.v. injection", "result": "5.69 ± 0.54", "unit": "%ID/g"}, {"measurement": "Biodistribution: lung", "setting": "60 min after i.v. injection", "result": "1.60 ± 0.27", "unit": "%ID/g"}, {"measurement": "Biodistribution: muscle", "setting": "60 min after i.v. injection", "result": "0.58 ± 0.11", "unit": "%ID/g"}, {"measurement": "Biodistribution: tumor (tumor uptake)", "setting": "[2]", "result": "0.96 %ID/g and 0.96 ± 0.24 %ID/g"}, {"measurement": "Biodistribution: blood", "setting": "120 min after i.v. injection", "result": "0.52 ± 0.10", "unit": "%ID/g"}, {"measurement": "Biodistribution: bone", "setting": "120 min after i.v. injection", "result": "1.28 ± 0.28", "unit": "%ID/g"}, {"measurement": "Biodistribution: brain", "setting": "120 min after i.v. injection", "result": "0.20 ± 0.03", "unit": "%ID/g"}, {"measurement": "Biodistribution: fat", "setting": "120 min after i.v. injection", "result": "0.15 ± 0.06", "unit": "%ID/g"}, {"measurement": "Biodistribution: heart", "setting": "120 min after i.v. injection", "result": "0.40 ± 0.07", "unit": "%ID/g"}, {"measurement": "Biodistribution: kidney", "setting": "120 min after i.v. injection", "result": "1.12 ± 0.16", "unit": "%ID/g"}, {"measurement": "Biodistribution: liver", "setting": "120 min after i.v. injection", "result": "2.30 ± 0.33", "unit": "%ID/g"}, {"measurement": "Biodistribution: lung", "setting": "120 min after i.v. injection", "result": "0.51 ± 0.08", "unit": "%ID/g"}, {"measurement": "Biodistribution: muscle", "setting": "120 min after i.v. injection", "result": "0.28 ± 0.10", "unit": "%ID/g"}, {"measurement": "tumor:fat ratio", "setting": "2 h after i.v. injection", "result": "~6"}, {"measurement": "clearance from the blood (in words)", "result": "cleared much more slowly from the blood than [^18F]3c"}]}
{"smiles": "COc1cc2c(cc1OC)CN(CCCCNC(=O)c1cc(I)ccc1OCC[18F])CC2", "note": "[[^18F]3e]", "values": [{"measurement": "Biodistribution: blood", "setting": "5 min after i.v. injection", "result": "4.60 ± 0.44", "unit": "%ID/g"}, {"measurement": "Biodistribution: bone", "setting": "5 min after i.v. injection", "result": "2.59 ± 0.28", "unit": "%ID/g"}, {"measurement": "Biodistribution: brain", "setting": "5 min after i.v. injection", "result": "0.55 ± 0.04", "unit": "%ID/g"}, {"measurement": "Biodistribution: fat", "setting": "5 min after i.v. injection", "result": "2.32 ± 0.46", "unit": "%ID/g"}, {"measurement": "Biodistribution: heart", "setting": "5 min after i.v. injection", "result": "3.22 ± 0.27", "unit": "%ID/g"}, {"measurement": "Biodistribution: kidney", "setting": "5 min after i.v. injection", "result": "36.07 ± 2.28", "unit": "%ID/g"}, {"measurement": "Biodistribution: liver", "setting": "5 min after i.v. injection", "result": "37.26 ± 4.88", "unit": "%ID/g"}, {"measurement": "Biodistribution: lung", "setting": "5 min after i.v. injection", "result": "9.71 ± 0.83", "unit": "%ID/g"}, {"measurement": "Biodistribution: muscle", "setting": "5 min after i.v. injection", "result": "1.52 ± 0.10", "unit": "%ID/g"}, {"measurement": "Biodistribution: tumor (tumor uptake)", "setting": "5 min after i.v. injection", "result": "2.54 ± 0.62", "unit": "%ID/g"}, {"measurement": "Biodistribution: blood", "setting": "30 min after i.v. injection", "result": "4.30 ± 0.59", "unit": "%ID/g"}, {"measurement": "Biodistribution: bone", "setting": "30 min after i.v. injection", "result": "1.31 ± 0.14", "unit": "%ID/g"}, {"measurement": "Biodistribution: brain", "setting": "30 min after i.v. injection", "result": "0.44 ± 0.04", "unit": "%ID/g"}, {"measurement": "Biodistribution: fat", "setting": "30 min after i.v. injection", "result": "1.04 ± 0.06", "unit": "%ID/g"}, {"measurement": "Biodistribution: heart", "setting": "30 min after i.v. injection", "result": "2.37 ± 0.29", "unit": "%ID/g"}, {"measurement": "Biodistribution: kidney", "setting": "30 min after i.v. injection", "result": "17.43 ± 1.95", "unit": "%ID/g"}, {"measurement": "Biodistribution: liver", "setting": "30 min after i.v. injection", "result": "17.35 ± 2.72", "unit": "%ID/g"}, {"measurement": "Biodistribution: lung", "setting": "30 min after i.v. injection", "result": "4.07 ± 0.46", "unit": "%ID/g"}, {"measurement": "Biodistribution: muscle", "setting": "30 min after i.v. injection", "result": "1.12 ± 0.05", "unit": "%ID/g"}, {"measurement": "Biodistribution: tumor (tumor uptake)", "setting": "30 min after i.v. injection", "result": "2.81 ± 0.62", "unit": "%ID/g"}, {"measurement": "Biodistribution: tumor (tumor uptake)", "setting": "[1]", "result": "2.72 ± 0.13", "unit": "%ID/g"}, {"measurement": "Biodistribution: blood", "setting": "60 min after i.v. injection", "result": "3.39 ± 0.29", "unit": "%ID/g"}, {"measurement": "Biodistribution: bone", "setting": "60 min after i.v. injection", "result": "0.99 ± 0.07", "unit": "%ID/g"}, {"measurement": "Biodistribution: brain", "setting": "60 min after i.v. injection", "result": "0.36 ± 0.02", "unit": "%ID/g"}, {"measurement": "Biodistribution: fat", "setting": "60 min after i.v. injection", "result": "0.62 ± 0.10", "unit": "%ID/g"}, {"measurement": "Biodistribution: heart", "setting": "60 min after i.v. injection", "result": "1.61 ± 0.11", "unit": "%ID/g"}, {"measurement": "Biodistribution: kidney", "setting": "60 min after i.v. injection", "result": "9.36 ± 0.90", "unit": "%ID/g"}, {"measurement": "Biodistribution: liver", "setting": "60 min after i.v. injection", "result": "7.31 ± 0.98", "unit": "%ID/g"}, {"measurement": "Biodistribution: lung", "setting": "60 min after i.v. injection", "result": "2.34 ± 0.12", "unit": "%ID/g"}, {"measurement": "Biodistribution: muscle", "setting": "60 min after i.v. injection", "result": "0.83 ± 0.04", "unit": "%ID/g"}, {"measurement": "Biodistribution: tumor (tumor uptake)", "setting": "[2]", "result": "1.92 %ID/g and 1.92 ± 0.10 %ID/g"}, {"measurement": "Biodistribution: blood", "setting": "120 min after i.v. injection", "result": "1.92 ± 0.59", "unit": "%ID/g"}, {"measurement": "Biodistribution: bone", "setting": "120 min after i.v. injection", "result": "1.67 ± 0.27", "unit": "%ID/g"}, {"measurement": "Biodistribution: brain", "setting": "120 min after i.v. injection", "result": "0.37 ± 0.06", "unit": "%ID/g"}, {"measurement": "Biodistribution: fat", "setting": "120 min after i.v. injection", "result": "0.44 ± 0.08", "unit": "%ID/g"}, {"measurement": "Biodistribution: heart", "setting": "120 min after i.v. injection", "result": "1.00 ± 0.23", "unit": "%ID/g"}, {"measurement": "Biodistribution: kidney", "setting": "120 min after i.v. injection", "result": "3.92 ± 0.98", "unit": "%ID/g"}, {"measurement": "Biodistribution: liver", "setting": "120 min after i.v. injection", "result": "4.25 ± 1.56", "unit": "%ID/g"}, {"measurement": "Biodistribution: lung", "setting": "120 min after i.v. injection", "result": "1.36 ± 0.24", "unit": "%ID/g"}, {"measurement": "Biodistribution: muscle", "setting": "120 min after i.v. injection", "result": "0.60 ± 0.11", "unit": "%ID/g"}, {"measurement": "clearance from the blood (in words)", "result": "cleared much more slowly from the blood than [^18F]3c"}]}
